Laboratory results: US20250345492A1, “AN ANTIBACTERIAL POLYPEPTIDE COMPOUND, A MEDICAL DEVICE, HYDROGEL AND USE THEREOF” (priority 2020, published 2025)
Ends that are not written are not given here.

Key:
[1] = tested on: Bacillus subtilis (ATCC 23857); details: ATCC 23857
From the text: (§1) With respect to the determination of antibacterial activity and antifungal activity of the antibacterial polypeptide compounds, the bacterial strains employed included: E. coli (ATCC 25922), E. coli (ATCC 43837), Pseudomonas aeruginosa (ATCC 27853), Klebsiella pneumoniae (ATCC 700603), Cronobacter sakazakii (ATCC 29544), Staphylococcus aureus (ATCC 29213), Bacillus subtilis (ATCC 23857) and Staphylococcus epidermidis (ATCC 12228); and the fungal strains employed included Candida albicans (ATCC 14053), Candida glabrata (ATCC 2001), Candida parapsilosis (ATCC 22019), Candida tropicalis (ATCC 750) and Candida krusei (ATCC 6258), all of which were standard strains from American Type Culture Collection. In addition, drug-resistant strains S-1a, S-2a, S-3a, S-4a, E-1b, E-2b, E-3b, E-4b, E-5b, P-1c, P-2c, P-3c, P-4c, P-5c, and clinically isolated fungal strains Candida glabrata 2-1 and Candida albicans 14-1, 14-2 and 14-3 were employed, all which were clinically isolated.
(§2) Simply, a proper amount of the cryopreserved bacterium or fungus was added to fresh MH/SD medium, and cultured on a shaker overnight at 180 rpm at 37° C. The obtained cells were seeded again and cultured on a shaker for 4-5 hours to obtain cells in logarithmic phase. The resulting cells were added to a 96-well plate (1×10^5 CFU/ml, 100 μL/well), and then 100 μL of polypeptide with different concentrations (1-256 μM) twice the final concentrations was added to corresponding well according to the 2-fold serial dilution method. The fresh medium was used as a negative control, which was prepared in triplicate for each concentration. After dosing, the 96-well plate was placed in an incubator at constant 37° C. and humidity for 12 hours to observe the results. According to naked eye observations, the concentration of the compound in the first transparent well following the turbid wells was recorded as the MIC of the compound, namely, the MIC value of the compound to the bacterium or fungus.

C. albicans ATCC14053 = details: ATCC14053
From the text: as §1, §2

C. glabrata ATCC22019 = details: ATCC22019
From the text: as §1, §2

C. krusei ATCC6258 = details: ATCC6258
From the text: as §1, §2

C. parapsilosis ATCC2001 = details: ATCC2001
From the text: as §1, §2

C. tropicalis ATCC750 = details: ATCC750
From the text: as §1, §2

[2] = tested on: Cronobacter sakazakii (ATCC 29544); details: ATCC 29544
From the text: as §1, §2

[3] = tested on: E-1b, clinical isolated drug-resistant strain ESBL; details: strain E-1b (ESBL)
From the text: as §1, §2

[4] = tested on: E-2b, clinical isolated drug-resistant strain ESBL; details: strain E-2b (ESBL)
From the text: as §1, §2

[5] = tested on: E-3b, clinical isolated drug-resistant strain ESBL; details: strain E-3b (ESBL)
From the text: as §1, §2

[6] = tested on: E-4b, clinical isolated drug-resistant strain ESBL; details: strain E-4b (ESBL)
From the text: as §1, §2

[7] = tested on: E-5b, clinical isolated drug-resistant strain ESBL; details: strain E-5b (ESBL)
From the text: as §1, §2

E. coli (ATCC 25922) [8] = details: ATCC 25922
From the text: as §1, §2

[9] = tested on: P-1c, clinical isolated drug-resistant strain PA; details: strain P-1c (PA)
From the text: as §1, §2

[10] = tested on: P-2c, clinical isolated drug-resistant strain PA; details: strain P-2c (PA)
From the text: as §1, §2

[11] = tested on: P-3c, clinical isolated drug-resistant strain PA; details: strain P-3c (PA)
From the text: as §1, §2

[12] = tested on: P-4c, clinical isolated drug-resistant strain PA; details: strain P-4c (PA)
From the text: as §1, §2

[13] = tested on: P-5c, clinical isolated drug-resistant strain PA; details: strain P-5c (PA)
From the text: as §1, §2

[14] = tested on: Pseudomonas aeruginosa (ATCC 27853); details: standard strain
From the text: as §1, §2

[15] = tested on: S-1a, clinical isolated drug-resistant strain MRSA; details: strain S-1a (MRSA)
From the text: as §1, §2

[16] = tested on: S-2a, clinical isolated drug-resistant strain MRSA; details: strain S-2a (MRSA)
From the text: as §1, §2

[17] = tested on: S-3a, clinical isolated drug-resistant strain MRSA; details: strain S-3a (MRSA)
From the text: as §1, §2

[18] = tested on: S-4a, clinical isolated drug-resistant strain MRSA; details: strain S-4a (MRSA)
From the text: as §1, §2

[19] = tested on: Staphylococcus aureus (ATCC 29213); details: ATCC 29213
From the text: as §1, §2

[20] = tested on: Staphylococcus epidermidis (ATCC 12228); details: ATCC 12228
From the text: as §1, §2

[21] = tested on: human cervical cancer cell Hela; experiment: Cytotoxicity, MTT colorimetry; assay type: cell-based
Experimental: (§3) For cytotoxicity determination, the MTT colorimetry was used to evaluate the effects of the compounds on the proliferation of human cervical cancer cell Hela, human embryonic renal epithelial cell HEK293 and mouse mononuclear macrophage RAW264.7.
(§4) Taking compounds 2, 8, 9, 13 and 15 of the present invention as examples, the cytotoxicity of the antibacterial polypeptide compounds was analyzed. Three cell lines were employed for the present invention, namely human cervical cancer cell Hela, human embryonic renal epithelial cell HEK293 and mouse mononuclear macrophage RAW264.7. Hela cells were cultured in RPMI 1640 medium with 10% newborn calf serum, HEK293 cells and RAW264.7 cells were cultured in DMEM medium with 10% fetal bovine serum. Simply, cells (1×10^4 cells/well) were inoculated to a 96-well plate and incubated in an incubator set to 5% CO2 at 37° C. After 24 hours, compounds of different concentrations were added and incubated in the 5% CO2 incubator. After 24 hours, 20 μL of MTT solution with a concentration of 5 mg/mL was added to each well and incubated for 4 hours. After that, the medium was removed with a pipet, and 150 μL of DMSO added to dissolve the purple-blue formazan crystals. The solution was shaken in an oscillator for 5 mins before detecting the absorbance value at 570 nm using the ELISA reader, and then the survival rate was calculated with the formula: (OD dosing group/OD control group)×100% (n=3).

[22] = tested on: human embryonic renal epithelial cell HEK293; experiment: Cytotoxicity, MTT colorimetry; assay type: cell-based
Experimental: as §3, §4

[23] = tested on: mouse mononuclear macrophage RAW264.7; experiment: Cytotoxicity, MTT colorimetry; assay type: cell-based
Experimental: as §3, §4

Acute toxicity in mice = experiment: Acute toxicity in mice; design: species or system Kunming mice; details: mouse, in vivo, ip, intraperitoneal injection, Karber method
Experimental: Acute toxicity of the compounds was determined by measuring the acute toxicity in mice with the compounds.
Taking compounds 2, 8, 9, 13 and 15 of the present invention as examples, […]. The mice used in this test were Kunming mice, which were placed in constant-temperature environment (22±1° C.) and could freely obtain water and food. Simply, 132 healthy Kunming mice were randomly divided into 11 groups, with 12 mice in each group (half male and half female), wherein, 5 groups were intraperitoneally injected with 0.2 ml of the compounds of different doses (100-1000 mg/kg), and the control group was intraperitoneally injected with normal saline. In this experiment, melittin was used as a reference control, and the other 5 groups were intraperitoneally injected with melittin of different doses (10-32 mg/kg). The state of mice was observed and recorded after 2 hours of administration, and then observed twice a day for 14 days, and the survival rates of the mice were recorded.

E. coli (ATCC 25922) [24] = experiment: Mouse septic peritonitis model, survival; assay type: in vivo, Kunming mice; details: 20 mg/kg intraperitoneally one hour after E. coli inoculation, 7 days of observation
Experimental: The determination of the in vivo antibacterial activity of the antibacterial polypeptide compounds is to reflect the antibacterial activity in vivo by detecting the survival rate of mice infected with bacteria or fungi.
Taking compounds 2, 8, 9, 13 and 15 of the present invention as examples, the in vivo antibacterial effects of the antibacterial polypeptide compounds were analyzed. The mice used in this test were Kunming mice, which were placed in constant-temperature environment (22±1° C.). Simply, 36 Kunming mice (18-22 g of body weight) were randomly divided into 6 groups and intraperitoneally injected with 0.2 ml of 3×10^8 CFU/mL E. coli (ATCC 25922) on Day 1 to establish mouse septic peritonitis model. The mice were administered intraperitoneally one hour after inoculation with the bacteria, and then the compounds 2, 8, 9, 13 and 15 were injected intraperitoneally at a dose of 20 mg/kg of body weight. Polymyxin B (20 mg/kg) was selected as a positive reference control, and a negative control group received intraperitoneal injection of sterile saline. After 7 days of observation, the survival rates of mice in administration groups and control groups were calculated to create survival curves.

## PWRLRLRL-NH2 [Compound 15]
[1]
  MIC B. subtilis ATCC23857: 4 µM
C. albicans ATCC14053
  MIC C. albicans ATCC14053: 4 µM
C. glabrata ATCC22019
  MIC C. glabrata ATCC22019: 4 µM
C. krusei ATCC6258
  MIC C. krusei ATCC6258: 16 µM
C. parapsilosis ATCC2001
  MIC C. parapsilosis ATCC2001: 4 µM
C. tropicalis ATCC750
  MIC C. tropicalis ATCC750: 4 µM
[2]
  MIC C. sakazakii ATCC29544: 8 µM
[3]
  MIC: 4 µM
[4]
  MIC: 4 µM
[5]
  MIC: 4 µM
[6]
  MIC: 4 µM
[7]
  MIC: 4 µM
E. coli (ATCC 25922) [8]
  MIC C. coli ATCC25922: 4 µM
[9]
  MIC: 8 µM
[10]
  MIC: 8 µM
[11]
  MIC: 8 µM
[12]
  MIC: 8 µM
[13]
  MIC: 8 µM
[14]
  MIC P. aerugmosa ATCC27853: 8 µM
[15]
  MIC: 8 µM
[16]
  MIC: 8 µM
[17]
  MIC: 8 µM
[18]
  MIC: 8 µM
[19]
  MIC S. aureus ATCC29213: 8 µM
[20]
  MIC S. epidermidis ATCC12228: 8 µM
[21]
  effect on proliferation (inhibitory activity): no inhibitory activity
[22]
  effect on proliferation (inhibitory activity): no inhibitory activity
[23]
  effect on proliferation (inhibitory activity): no inhibitory activity
Acute toxicity in mice
  LD50: > 1000 mg/kg

## Polymyxin B
E. coli (ATCC 25922) [24]
  survival rate of mice: 100%

## Triton X-100
Mouse red blood cells
  hemolysis rate: 100%
